Laboratory results taken from paper PMC5791972 (PLoS ONE, 2018).
Where “and” joins values, the source holds several entries; their conditions need not be identical. Identical values can stand only once. No end group written: not given here.

Assays:
[1] = target: T1, tyrosine hydroxylase (Rattus norvegicus, UniProt P04177); assay: enzyme assay; assay type: biochemical
T1 construct: rat striatum; from tissue; host or cells: rat striatum

[2] = target: T2, GABA transaminase (Rattus norvegicus, UniProt P50554); assay: enzyme assay; assay type: biochemical
T2 construct: rat brain; from tissue; host or cells: rat brain

[3] = target: T3, A3 (h) (Homo sapiens, UniProt P0DMS8); assay type: binding
T3 construct: host or cells: HEK-293 cells
T3 sequence (P0DMS8 1-318): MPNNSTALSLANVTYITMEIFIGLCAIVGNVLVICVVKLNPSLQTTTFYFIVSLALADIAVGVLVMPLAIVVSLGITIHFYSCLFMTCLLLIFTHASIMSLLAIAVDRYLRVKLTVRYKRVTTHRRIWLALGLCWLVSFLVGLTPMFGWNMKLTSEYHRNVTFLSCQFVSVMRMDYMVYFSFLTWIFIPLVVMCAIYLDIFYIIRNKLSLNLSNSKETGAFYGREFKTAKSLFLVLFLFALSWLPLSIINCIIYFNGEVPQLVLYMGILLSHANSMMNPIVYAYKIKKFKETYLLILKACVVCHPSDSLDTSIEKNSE

[4] = target: T4, β1 (h) (Homo sapiens, UniProt P08588); assay type: binding
T4 construct: host or cells: HEK-293 cells

[5] = target: T5, α2C (h) (Homo sapiens, UniProt P18825); assay type: binding
T5 construct: host or cells: CHO cells
T5 sequence (P18825 1-462): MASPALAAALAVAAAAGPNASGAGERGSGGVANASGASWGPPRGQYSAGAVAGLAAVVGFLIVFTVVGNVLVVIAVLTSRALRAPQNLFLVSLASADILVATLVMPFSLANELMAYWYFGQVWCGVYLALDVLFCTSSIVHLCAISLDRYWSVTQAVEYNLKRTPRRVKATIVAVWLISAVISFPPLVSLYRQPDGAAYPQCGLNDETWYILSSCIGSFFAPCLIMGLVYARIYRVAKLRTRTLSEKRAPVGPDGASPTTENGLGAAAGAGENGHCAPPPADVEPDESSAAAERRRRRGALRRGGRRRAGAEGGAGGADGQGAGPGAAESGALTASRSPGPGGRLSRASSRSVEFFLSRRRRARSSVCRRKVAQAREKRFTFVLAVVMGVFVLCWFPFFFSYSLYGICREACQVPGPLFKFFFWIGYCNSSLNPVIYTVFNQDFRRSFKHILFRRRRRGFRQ

[6] = target: T6, choline transporter (CHT1) (h) (Homo sapiens, UniProt Q9GZV3); assay type: binding
T6 construct: host or cells: CHO cells
T6 sequence (Q9GZV3 1-580): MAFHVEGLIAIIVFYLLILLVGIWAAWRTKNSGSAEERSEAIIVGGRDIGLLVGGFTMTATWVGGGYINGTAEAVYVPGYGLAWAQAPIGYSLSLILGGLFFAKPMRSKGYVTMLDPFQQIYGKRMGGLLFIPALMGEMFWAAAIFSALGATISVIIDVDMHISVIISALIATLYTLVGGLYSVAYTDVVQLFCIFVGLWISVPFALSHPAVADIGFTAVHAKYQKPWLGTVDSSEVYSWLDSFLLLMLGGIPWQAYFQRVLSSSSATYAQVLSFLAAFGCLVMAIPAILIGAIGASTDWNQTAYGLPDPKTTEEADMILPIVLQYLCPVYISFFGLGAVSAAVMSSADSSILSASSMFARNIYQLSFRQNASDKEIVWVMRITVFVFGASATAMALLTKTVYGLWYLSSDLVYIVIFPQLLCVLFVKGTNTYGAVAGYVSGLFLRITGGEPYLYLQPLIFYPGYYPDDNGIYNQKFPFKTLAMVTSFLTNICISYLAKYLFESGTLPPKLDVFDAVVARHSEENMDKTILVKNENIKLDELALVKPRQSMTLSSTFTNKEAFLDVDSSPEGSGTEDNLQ

[7] = target: T7, AR (h) (Homo sapiens, UniProt P10275, T878A); assay type: binding
T7 construct: AR (h) LNCaP cells [3H]methyltrienolone; host or cells: LNCaP cells (cytosol)
T7 sequence (P10275 1-920 T878A): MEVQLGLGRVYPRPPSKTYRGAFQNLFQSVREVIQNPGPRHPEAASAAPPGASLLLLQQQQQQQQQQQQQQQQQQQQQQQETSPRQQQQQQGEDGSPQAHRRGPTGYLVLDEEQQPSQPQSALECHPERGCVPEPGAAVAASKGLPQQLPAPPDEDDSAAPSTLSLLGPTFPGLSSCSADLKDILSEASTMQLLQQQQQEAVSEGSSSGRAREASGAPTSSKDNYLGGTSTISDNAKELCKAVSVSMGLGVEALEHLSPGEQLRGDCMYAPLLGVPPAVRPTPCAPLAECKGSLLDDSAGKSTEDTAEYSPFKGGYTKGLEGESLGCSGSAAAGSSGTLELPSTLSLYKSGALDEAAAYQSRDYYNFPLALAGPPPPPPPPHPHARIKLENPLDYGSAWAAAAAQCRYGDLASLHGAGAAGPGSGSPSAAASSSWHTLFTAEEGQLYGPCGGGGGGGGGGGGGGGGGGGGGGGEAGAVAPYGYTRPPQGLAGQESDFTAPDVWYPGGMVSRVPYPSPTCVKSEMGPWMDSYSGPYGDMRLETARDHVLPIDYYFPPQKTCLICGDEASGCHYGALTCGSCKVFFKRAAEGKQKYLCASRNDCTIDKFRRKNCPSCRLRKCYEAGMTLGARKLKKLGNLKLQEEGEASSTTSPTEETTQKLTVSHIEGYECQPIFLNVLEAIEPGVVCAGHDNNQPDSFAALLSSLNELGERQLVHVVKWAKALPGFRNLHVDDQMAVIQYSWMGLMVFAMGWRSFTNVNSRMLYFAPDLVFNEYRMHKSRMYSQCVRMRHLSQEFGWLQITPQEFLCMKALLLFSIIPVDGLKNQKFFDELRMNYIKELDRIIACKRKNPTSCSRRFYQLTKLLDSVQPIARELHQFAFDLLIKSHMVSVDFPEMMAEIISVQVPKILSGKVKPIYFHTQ

[8] = target: rolipram; assay type: binding, mouse
[9] = target: T8, α2A (h) (Homo sapiens, UniProt P08913); assay type: binding
T8 construct: host or cells: CHO cells
T8 sequence (P08913 1-465): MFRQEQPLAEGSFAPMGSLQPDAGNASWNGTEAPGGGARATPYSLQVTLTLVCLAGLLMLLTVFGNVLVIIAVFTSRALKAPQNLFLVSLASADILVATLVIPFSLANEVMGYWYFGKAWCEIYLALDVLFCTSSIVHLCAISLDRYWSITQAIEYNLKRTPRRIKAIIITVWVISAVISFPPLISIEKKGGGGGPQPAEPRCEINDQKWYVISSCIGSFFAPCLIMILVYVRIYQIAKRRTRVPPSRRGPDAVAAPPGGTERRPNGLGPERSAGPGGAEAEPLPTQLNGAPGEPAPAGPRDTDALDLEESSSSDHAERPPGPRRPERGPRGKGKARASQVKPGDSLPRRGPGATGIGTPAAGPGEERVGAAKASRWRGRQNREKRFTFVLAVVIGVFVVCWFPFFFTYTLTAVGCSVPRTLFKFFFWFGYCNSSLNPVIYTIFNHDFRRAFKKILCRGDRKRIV

[10] = target: T9, PDE6 (non-selective) (Bos taurus, UniProt P11541+P23439); assay: enzyme assay; assay type: biochemical, bovine
T9 construct: PDE6 bovine [3H]cGMP; tissue Cerep (contract assay); host or cells: bovine retina
T9 sequence (P11541 2-856 limits assumed): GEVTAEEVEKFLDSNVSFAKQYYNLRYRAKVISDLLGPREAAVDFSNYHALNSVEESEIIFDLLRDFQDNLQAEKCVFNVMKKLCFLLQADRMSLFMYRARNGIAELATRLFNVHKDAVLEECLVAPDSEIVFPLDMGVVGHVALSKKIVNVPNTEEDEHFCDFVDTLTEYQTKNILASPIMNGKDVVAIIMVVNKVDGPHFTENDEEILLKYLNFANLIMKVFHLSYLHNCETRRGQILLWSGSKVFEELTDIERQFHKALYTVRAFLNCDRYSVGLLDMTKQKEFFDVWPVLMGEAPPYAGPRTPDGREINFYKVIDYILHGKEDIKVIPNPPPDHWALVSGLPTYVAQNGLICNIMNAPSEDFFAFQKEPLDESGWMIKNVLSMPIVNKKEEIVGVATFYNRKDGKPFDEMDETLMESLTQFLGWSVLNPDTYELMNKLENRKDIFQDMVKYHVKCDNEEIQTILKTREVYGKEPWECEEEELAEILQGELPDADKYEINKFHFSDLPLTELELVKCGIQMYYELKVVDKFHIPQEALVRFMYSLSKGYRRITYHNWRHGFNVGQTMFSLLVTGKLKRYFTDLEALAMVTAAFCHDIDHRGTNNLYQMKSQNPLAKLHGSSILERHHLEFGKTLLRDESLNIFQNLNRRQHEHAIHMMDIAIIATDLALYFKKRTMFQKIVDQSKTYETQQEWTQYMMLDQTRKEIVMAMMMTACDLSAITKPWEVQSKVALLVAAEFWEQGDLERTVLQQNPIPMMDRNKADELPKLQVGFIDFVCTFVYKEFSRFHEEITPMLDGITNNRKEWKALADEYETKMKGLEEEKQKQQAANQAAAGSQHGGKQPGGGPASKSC
T9 sequence (P23439 2-850 limits assumed): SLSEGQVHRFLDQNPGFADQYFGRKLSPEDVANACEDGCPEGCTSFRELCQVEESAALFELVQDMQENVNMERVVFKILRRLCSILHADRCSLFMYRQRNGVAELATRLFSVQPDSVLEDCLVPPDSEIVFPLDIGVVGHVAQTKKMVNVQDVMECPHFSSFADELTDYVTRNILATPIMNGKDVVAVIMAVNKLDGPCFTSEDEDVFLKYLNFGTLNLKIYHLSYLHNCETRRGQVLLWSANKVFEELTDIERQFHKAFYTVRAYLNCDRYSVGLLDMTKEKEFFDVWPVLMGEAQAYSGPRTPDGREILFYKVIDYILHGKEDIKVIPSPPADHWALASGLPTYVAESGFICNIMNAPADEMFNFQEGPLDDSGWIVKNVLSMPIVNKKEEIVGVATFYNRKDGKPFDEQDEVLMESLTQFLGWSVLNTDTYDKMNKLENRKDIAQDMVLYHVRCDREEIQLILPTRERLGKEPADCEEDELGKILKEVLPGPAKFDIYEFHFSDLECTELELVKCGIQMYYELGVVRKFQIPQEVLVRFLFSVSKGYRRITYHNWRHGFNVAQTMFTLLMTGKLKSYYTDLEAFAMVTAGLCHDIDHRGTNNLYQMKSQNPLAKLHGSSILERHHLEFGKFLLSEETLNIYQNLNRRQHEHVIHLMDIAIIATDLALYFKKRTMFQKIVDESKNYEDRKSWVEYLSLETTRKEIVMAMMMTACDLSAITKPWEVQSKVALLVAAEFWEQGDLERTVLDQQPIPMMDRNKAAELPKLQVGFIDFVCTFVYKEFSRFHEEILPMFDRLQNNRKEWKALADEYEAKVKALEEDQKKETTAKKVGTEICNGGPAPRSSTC

[11] = target: CaMK2α (h) (Homo sapiens, UniProt Q9UQM7); assay: enzyme assay; assay type: biochemical
[12] = target: T10, phosphatase 1B (h) (PTP1B) (Homo sapiens, UniProt P18031); assay: enzyme assay; assay type: biochemical
T10 construct: host or cells: E. coli
T10 sequence (P18031 1-435): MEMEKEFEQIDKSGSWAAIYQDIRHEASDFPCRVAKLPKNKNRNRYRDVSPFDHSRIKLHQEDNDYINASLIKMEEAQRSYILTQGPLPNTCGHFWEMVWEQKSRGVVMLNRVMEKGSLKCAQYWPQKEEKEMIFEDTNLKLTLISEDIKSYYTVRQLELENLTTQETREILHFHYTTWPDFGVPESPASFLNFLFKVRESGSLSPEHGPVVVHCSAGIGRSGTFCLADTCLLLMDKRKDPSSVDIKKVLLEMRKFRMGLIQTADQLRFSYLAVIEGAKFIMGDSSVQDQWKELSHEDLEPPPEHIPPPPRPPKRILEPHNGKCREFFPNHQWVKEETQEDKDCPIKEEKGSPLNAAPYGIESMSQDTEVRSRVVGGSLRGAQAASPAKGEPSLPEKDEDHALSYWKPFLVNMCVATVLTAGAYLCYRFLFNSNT

T1 sequence (P04177 whole entry): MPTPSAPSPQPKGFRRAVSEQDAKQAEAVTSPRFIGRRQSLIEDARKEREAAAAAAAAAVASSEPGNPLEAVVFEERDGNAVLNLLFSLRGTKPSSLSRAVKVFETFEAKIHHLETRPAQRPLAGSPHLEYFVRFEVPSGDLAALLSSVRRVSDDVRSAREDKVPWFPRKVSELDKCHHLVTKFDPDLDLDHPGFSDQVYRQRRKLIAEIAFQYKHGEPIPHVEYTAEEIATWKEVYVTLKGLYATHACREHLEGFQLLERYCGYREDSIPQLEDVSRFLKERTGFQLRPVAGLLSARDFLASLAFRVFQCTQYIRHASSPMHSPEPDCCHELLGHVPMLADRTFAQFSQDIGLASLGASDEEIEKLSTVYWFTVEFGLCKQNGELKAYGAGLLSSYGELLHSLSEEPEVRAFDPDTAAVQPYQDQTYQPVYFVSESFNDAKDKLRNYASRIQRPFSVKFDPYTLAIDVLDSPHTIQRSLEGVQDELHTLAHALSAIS
T2 sequence (P50554 28-500): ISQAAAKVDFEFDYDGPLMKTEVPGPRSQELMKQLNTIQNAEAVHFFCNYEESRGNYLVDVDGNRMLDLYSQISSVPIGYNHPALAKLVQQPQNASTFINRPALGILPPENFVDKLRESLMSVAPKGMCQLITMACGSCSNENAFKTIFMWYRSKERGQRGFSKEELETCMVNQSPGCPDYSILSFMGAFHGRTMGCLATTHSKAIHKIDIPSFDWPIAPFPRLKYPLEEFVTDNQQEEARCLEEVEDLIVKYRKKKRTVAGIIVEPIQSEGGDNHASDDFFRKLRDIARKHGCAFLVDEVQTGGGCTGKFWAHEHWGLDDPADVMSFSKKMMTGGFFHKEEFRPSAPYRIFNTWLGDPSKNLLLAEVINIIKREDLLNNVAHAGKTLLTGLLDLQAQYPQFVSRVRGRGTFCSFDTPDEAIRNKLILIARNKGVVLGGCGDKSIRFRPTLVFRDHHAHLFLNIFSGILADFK
T4 sequence (P08588 whole entry): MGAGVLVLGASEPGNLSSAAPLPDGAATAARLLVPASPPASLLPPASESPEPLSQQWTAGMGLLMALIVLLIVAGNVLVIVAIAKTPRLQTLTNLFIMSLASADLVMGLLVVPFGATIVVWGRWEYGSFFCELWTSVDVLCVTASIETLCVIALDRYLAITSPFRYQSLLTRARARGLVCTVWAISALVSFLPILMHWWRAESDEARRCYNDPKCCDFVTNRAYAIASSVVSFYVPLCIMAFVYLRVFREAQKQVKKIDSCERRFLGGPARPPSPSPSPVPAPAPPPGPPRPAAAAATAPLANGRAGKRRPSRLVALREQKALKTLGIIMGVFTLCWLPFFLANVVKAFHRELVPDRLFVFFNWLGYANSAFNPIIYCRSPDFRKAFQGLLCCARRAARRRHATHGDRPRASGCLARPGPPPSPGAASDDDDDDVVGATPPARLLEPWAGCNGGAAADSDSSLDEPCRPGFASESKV

## N[C@@H](Cc1ccc(O)c(I)c1)C(=O)O [3-iodo L-tyrosine, reference compound]
[1]
  IC50: 0.61 µM
  nH: 1.0

## NOCC(=O)O [AoAA, reference compound]
[2]
  IC50: 0.13 µM
  nH: 1.7

## CNC(=O)[C@H]1O[C@@H](n2cnc3c(NCc4cccc(I)c4)ncnc32)[C@H](O)[C@@H]1O [IB-MECA, reference compound]
[3]
  nH: 0.8

## CC(C)NCC(O)COc1ccc(CC(N)=O)cc1 (stereo not shown) [atenolol, reference compound]
[4]
  nH: 1.0

## CNC[C@H](O)c1ccc(O)c(O)c1 [epinephrine, reference compound]
[5]
  nH: 1.1

## C[N+]1(C)CCOC(O)(c2ccc(-c3ccc(C4(O)C[N+](C)(C)CCO4)cc3)cc2)C1 (stereo not shown) [hemicholinium-3, reference compound]
[6]
  Ki: 0.0036 µM
  nH: 0.7

## C[C@@H]1CC2=CC(=O)CC[C@@H]2[C@H]2CC[C@@]3(C)[C@@H](CC[C@]3(C)O)[C@@H]21 [mibolerone, reference compound]
[7]
  nH: 1.1 and 1.0

## COc1ccc(C2CNC(=O)C2)cc1OC1CCCC1 (stereo not shown) [rolipram, reference compound]
[8]
  IC50: 0.00071 µM
  Ki: 0.00036 µM

## COC(=O)[C@@H]1[C@H]2C[C@H]3c4[nH]c5ccccc5c4CCN3C[C@@H]2CC[C@@H]1O [yohimbine, reference compound]
[9]
  nH: 1.1

## CCCOc1ccccc1-c1nc2nn[nH]c2c(=O)[nH]1 [zaprinast, reference compound]
[10]
  IC50: 0.17 µM
  nH: 0.7

## KKALRRQEAVDAL [AIP, reference compound]
[11]
  IC50: 0.081 µM
  nH: 1.0

## ammonium molybdate [reference compound]
[12]
  IC50: 0.54 µM
  nH: 2.9
